The values that follow come from publication PMC9352230 (ACS Omega, 2022).

Experiment [1] deals with ENPP1. As to conditions: read-out: ENPP1 IC50, cited from earlier work.
The test system of experiment [2] is HEK293 (human embryonic kidney cell line). Kind of experiment: MTT cytotoxicity assay, HEK293. The class given is cell-based. The conditions noted are these: for inhibition at 100 µM: Homo sapiens, HEK293, 24 h, read-out: HEK293 (% inhibition ±SD). Background: Formazan colour is commonly taken as a measure of viable cells.
In experiment [3] the test system is HeLa (human cervical cancer cell line). Briefly: MTT cytotoxicity assay, HeLa. The experiment is classed as cell-based. As to conditions: 100 μM compound, 24 h treatment, triplicate.
The target in experiment [4] is T1, ENPP1 (Homo sapiens, UniProt P22413).
T1 sequence (P22413 1-925): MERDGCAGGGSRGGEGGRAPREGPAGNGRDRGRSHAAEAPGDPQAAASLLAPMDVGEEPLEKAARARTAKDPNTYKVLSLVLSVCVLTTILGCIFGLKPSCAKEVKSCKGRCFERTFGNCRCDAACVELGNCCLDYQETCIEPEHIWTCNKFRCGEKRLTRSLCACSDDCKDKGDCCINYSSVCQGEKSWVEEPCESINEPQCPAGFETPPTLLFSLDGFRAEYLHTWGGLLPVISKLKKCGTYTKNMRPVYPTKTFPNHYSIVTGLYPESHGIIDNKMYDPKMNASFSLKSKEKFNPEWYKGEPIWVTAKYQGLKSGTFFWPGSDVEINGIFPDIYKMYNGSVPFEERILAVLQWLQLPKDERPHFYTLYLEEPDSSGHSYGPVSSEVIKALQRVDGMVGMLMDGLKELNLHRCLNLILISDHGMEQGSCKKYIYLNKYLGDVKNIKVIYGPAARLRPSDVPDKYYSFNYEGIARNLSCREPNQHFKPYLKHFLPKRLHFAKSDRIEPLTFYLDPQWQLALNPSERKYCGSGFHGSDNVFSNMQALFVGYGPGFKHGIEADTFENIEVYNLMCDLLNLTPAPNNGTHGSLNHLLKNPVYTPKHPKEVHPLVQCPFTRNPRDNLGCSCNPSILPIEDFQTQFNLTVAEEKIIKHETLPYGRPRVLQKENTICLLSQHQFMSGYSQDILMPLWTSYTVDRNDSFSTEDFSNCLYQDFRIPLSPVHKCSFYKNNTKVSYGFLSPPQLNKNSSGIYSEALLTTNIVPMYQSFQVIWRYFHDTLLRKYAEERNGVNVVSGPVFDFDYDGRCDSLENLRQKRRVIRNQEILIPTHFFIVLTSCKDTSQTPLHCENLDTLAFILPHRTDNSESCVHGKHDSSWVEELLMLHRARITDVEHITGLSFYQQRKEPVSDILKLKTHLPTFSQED
Briefly: ENPP1 enzyme inhibition assay. The class given is biochemical.

Experiment [5] has as its target T2, ENPP3 (Homo sapiens, UniProt O14638).
T2 sequence (O14638 1-875): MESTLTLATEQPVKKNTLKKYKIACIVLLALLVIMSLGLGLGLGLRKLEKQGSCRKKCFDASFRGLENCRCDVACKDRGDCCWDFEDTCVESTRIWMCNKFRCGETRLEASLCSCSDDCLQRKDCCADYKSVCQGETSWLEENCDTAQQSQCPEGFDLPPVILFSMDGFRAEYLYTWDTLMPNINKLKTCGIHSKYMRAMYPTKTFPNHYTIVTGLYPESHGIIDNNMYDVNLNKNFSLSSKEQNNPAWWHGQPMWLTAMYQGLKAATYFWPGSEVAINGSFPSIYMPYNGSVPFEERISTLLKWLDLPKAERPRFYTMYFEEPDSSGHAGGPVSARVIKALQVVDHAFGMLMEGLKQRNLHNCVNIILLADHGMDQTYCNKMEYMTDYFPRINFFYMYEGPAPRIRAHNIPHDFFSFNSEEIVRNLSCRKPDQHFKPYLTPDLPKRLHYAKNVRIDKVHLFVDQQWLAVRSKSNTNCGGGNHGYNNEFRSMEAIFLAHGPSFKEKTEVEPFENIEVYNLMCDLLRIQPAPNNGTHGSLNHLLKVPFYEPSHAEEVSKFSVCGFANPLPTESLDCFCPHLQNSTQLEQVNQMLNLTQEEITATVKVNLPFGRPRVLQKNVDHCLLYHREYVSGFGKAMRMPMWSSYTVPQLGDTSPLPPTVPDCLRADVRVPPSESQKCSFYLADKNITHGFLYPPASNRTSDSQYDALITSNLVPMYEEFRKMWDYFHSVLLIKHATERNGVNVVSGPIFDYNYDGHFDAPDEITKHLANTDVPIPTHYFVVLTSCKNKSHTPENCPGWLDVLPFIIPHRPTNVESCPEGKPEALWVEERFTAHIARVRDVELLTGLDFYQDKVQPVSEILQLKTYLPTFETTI
Kind of experiment: Enzyme kinetic study, Lineweaver-Burk plots, ENPP3. The experiment is classed as biochemical. As to conditions: triplicates.

Experiment [6] deals with T2, ENPP3. Briefly: ENPP3 enzyme inhibition assay. The experiment is classed as biochemical. The conditions noted are these: for inhibition at 100 µM: read-out: ENPP3 % inhibition ± SD.
The subject of experiment [7] is MCF7 (human breast cancer cell line). Kind of experiment: MTT cytotoxicity assay, MCF7. The class given is cell-based. The conditions noted are these: MCF7, 24 h, read-out: MCF7 (% inhibition ±SD).
In experiment [8] the target is T1, ENPP1. Briefly: Enzyme kinetic study, Lineweaver-Burk plots, ENPP1. The class given is biochemical. The conditions noted are these: triplicates.

The structures appear in SMILES notation. “Also recorded” adds a separate entry of the source. Where two headings read alike, the source gives them in different places.

For the molecule `O=C(NS(=O)(=O)c1ccccc1)n1ccc2cccnc21` [N-(pyrrolo[2,3-b]pyridine-1-carbonyl)benzenesulfonamide], the IC50 in the experiment on ENPP1 [1] (selective inhibitor of ENPP1) was 4500 ± 160 nM.
Take `N.N.[Cl][Pt][Cl]` [cisplatin, reference compound]: the “HEK293 (% inhibition ±SD)” value in experiment [2] (100 μM compound, MTT, 24 h treatment, triplicate, normal cell line) was 65.5 ± 1.48%. Besides, the “HeLa cell line (% inhibition ±SD)” value in experiment [3] is given as 84.3 ± 2.72%.
In the case of `Cc1ccc(S(=O)(=O)Oc2ccc(NC(=O)C3(C)c4ccccc4-c4ccccc43)cc2)cc1` [7e, 4-(9-Methyl-9H-fluorene-9-carboxamido)phenyl 4-Methylbenzenesulfonate], the half-maximal inhibitory concentration (IC50) against ENPP1 [4] was 18900 ± 540 nM; at ENPP3 [6], 380 ± 130 nM. The “mode of inhibition of ENPP3” value at ENPP3 [5] was “competitively”. Further, the figures for the inhibition at 100 µM in experiment [2] and in experiment [7] were 12.4 ± 1.42% and 0.3 ± 0.15%, respectively.
As to `CCCCc1ccc(S(=O)(=O)Oc2ccc(NC(=O)c3ccc(C)cc3)cc2)cc1` [4j, 4-(4-Methylbenzamido)phenyl 4-Butylbenzenesulfonate], inhibition against ENPP1 [4] was half-maximal at 230 ± 30 nM (IC50). Moreover, on ENPP1 [8], the “mode of inhibition of ENPP1” value was “uncompetitive; also recorded: uncompetitively”. For the same molecule, the inhibition at 100 µM in experiment [2] was 27.6 ± 2.55%; at ENPP3 [6], 42.1 ± 3.43%; in experiment [7] it was 13.3 ± 0.73%.
On to `Cc1ccc(S(=O)(=O)Oc2ccc(-c3sc4cc(OS(=O)(=O)c5ccc(C)cc5)ccc4c3C(=O)c3ccc(OCCN4CCCCC4)cc3)cc2)cc1` [3-(4-(2-(piperidin-1-yl)ethoxy)benzoyl)-2-(4-(tosyloxy)phenyl)benzo[b]thiophen-6-yl-4-methylbenzenesulfonate], for which, in the experiment on ENPP1 [1] (selective inhibition of ENPP1), the IC50 is 450 nM.
As to `O=C(Nc1ccc(OS(=O)(=O)Cc2ccccc2)cc1)c1ccccc1` [4n, 4-Benzamidophenyl Phenylmethanesulfonate], the IC50 on ENPP1 [4] came to 3960 ± 120 nM; at ENPP3 [6] it was 4120 ± 50 nM. The inhibition at 100 µM in experiment [2] was 5.8 ± 0.23%; in experiment [7], 7.3 ± 0.03%.
For `Cc1ccc(C(=O)Nc2ccc(OS(=O)(=O)c3ccc(OC(F)(F)F)cc3)cc2)cc1` [4g, 4-(4-Methylbenzamido)phenyl 4-(Trifluoromethoxy)benzenesulfonate], in that order: 450 ± 70 nM, 190 ± 20 nM, 3.2 ± 0.11% and 11.7 ± 0.84%.
Consider `COc1ccc(S(=O)(=O)Oc2ccc(NC(=O)c3ccc(C)cc3)cc2)cc1` [4d, 4-(4-Methylbenzamido)phenyl 4-Methoxybenzenesulfonate], for which the 50% inhibitory concentration (IC50) on ENPP1 [4] came to 180 ± 10 nM. Also, the inhibition at 100 µM worked out at 13.1 ± 0.73% in experiment [2], 45.7 ± 2.35% at ENPP3 [6] and 31.5 ± 2.43% in experiment [7].

By IC50 is commonly meant the concentration at which inhibition is half-maximal. By inhibition is commonly meant the share of the control response that was lost under treatment.
